Experimental findings from patent US9289461B2, “Reducing the risk of autoimmune disease” (Mead Johnson Nutrition (Asia Pacific) Pte. Ltd., priority 2013, dated 2016) are described below.

The assay relates to STC-1 (intestinal endocrine cell line). Description: CCK release from STC-1 intestinal endocrine cell line. It counts as cell-based. The conditions noted are these: compared with a partial hydrolysate (Gentlease) or free amino acids.

With “ALPMHIR [specific peptide from a casein hydrolysate of the present disclosure]”, the “CCK release from STC-1 cells” value is given as “may stimulate CCK release”.
On to “DISLLDAQSAPLR [specific peptide from a casein hydrolysate of the present disclosure]”, for which the “CCK release from STC-1 cells” value is recorded as “may stimulate CCK release”.
With “GPVRGPFP [specific peptide from a casein hydrolysate of the present disclosure]”, the “CCK release from STC-1 cells” value is given as “may stimulate CCK release”.
